Source: patent US5576290A, “Compositions and methods for the diagnosis and treatment of psychogenic erectile dysfunction” (Competitive Technologies, Inc., priority 1994, dated 1996)
Bridge positions count the residues as written; N and C are the ends. Square brackets hold non-standard residues; d marks the D form. Ends that are not written are not given here. Peptide text beside a SMILES is read from it. Nle = CCCC[C@H](N)C(=O)O

How the values were obtained:
men = settings: oral, a few hundred men treated for depression, early 1980s; cited from earlier work
human volunteers = experiment: Erectile response after subcutaneous injection of peptide in human volunteers; assay type: in vivo
Experimental: The peptides described herein were prepared by sterile methods to a final concentration of 10 mg of peptide per ml of physiological saline. In addition to a full dose providing 10 mg of the peptide to the individual, doses of 0.1 to 0.3 ml (providing 1 mg to 3 mg of the peptide to each individual) of this stock material were also injected into volunteers, with a dose of 0.1 to 0.2 ml being the most often used dosage.
The onset of erection occurred about 1 to 2 hours after injection. […] A dose of 3.75 mg given to volunteers produced a long lasting erection of 4 to 6 hour duration. […] In some, this discomfort was considerable. […] Accordingly, although dosages of from about 1.0 mg to about 10.0 mg show the desired activity according to the present invention, it is preferred that the lower ranges of dosage which bring about the desired erection without undesirable side effects be used. Accordingly, it is preferred that dosages of about 1.5 mg to 2.5 mg of peptide be provided when the route of administration is subcutaneous or intramuscular. With other routes of administration, this range may require adjustment, however, it is still preferred that the lower range of adjusted effective dosages for the selected route of administration be used.

patients = settings: cited from earlier work
[1] = injection, alone or combined with phentolamine

In the case of O=c1n(CCCN2CCN(c3cccc(Cl)c3)CC2)nc2ccccn12 [trazodone], the “erections as unexpected effect” value (men) is given as “prolonged and painful erections”.
With CCCC[C@H](NC(C)=O)C(=O)N[C@H]1CC(=O)NCCCC[C@@H](C(=O)NCC(N)=O)NC(=O)[C@H](Cc2c[nH]c3ccccc23)NC(=O)[C@H](CCCNC(=N)N)NC(=O)[C@@H](Cc2ccccc2)NC(=O)[C@H](Cc2c[nH]cn2)NC1=O (Ac-[Nle]DH[dF]RWKG-NH2; lactam 2-7) the “duration of erection (sustained intermittently)” value (human volunteers; 1.25 mg dose) was “up to 6 hours”, the induction of erection (human volunteers; 1.25 mg dose) was “induced an erection” and the onset of erection (human volunteers; 1.25 mg dose, compared with 2.5 mg) was “took longer to initially occur”. The “time to erection following administration” value (human volunteers; 2.5 mg) was at most 60 min and the stomach discomfort (human volunteers; 2.5 mg and 1.25 mg doses) was “No stomach discomfort was experienced”.
In the case of “vasoactive intestinal peptide (HSDAVFTDNYTRLRKQMAVKKYLNSILN; ends and bridges not checked; UniProt P01282 125-152, looked up)”, the “induction of full erection necessary for intercourse” value (patients; intrapenile injections, trials) is listed as “proven ineffective”.
In the case of COc1ccc(Cc2nccc3cc(OC)c(OC)cc23)cc1OC [papaverine], the “share of patients in whom erection is induced” value (patients; [1]) is listed as “about 70%” and the side effects (patients; [1]) is listed as “pain, ecchymosis, and occasional episodes of priapism”.
